Several values for one entry are separate records, joined by “and”; a condition that tells them apart may be missing. Identical values can stand only once. Counter-ions that a name gives are not always drawn.
Tests used:
[1] = tested on: whole blood; assay: Comparison of ADVIA 120 haematology results in anticoagulated blood; format: cell-based, human; conditions: Table 2, Mean (+/-S.E.) at 30 minutes, 7 control samples
Protocol: (§1) Whole blood samples were taken into Vacutainer™ containers that contained either K3EDTA, or CTAD, or a mixture of K3EDTA and CTAD (E/C). For the latter, blood was collected first into K3EDTA and then immediately transferred to a Vacutainer™ containing CTAD. Samples were held at ambient temperature, analysed immediately and at 30, 60, 120, and 180 min after venesection. Analysis of platelet count (PLT), mean platelet volume (MPV) and mean platelet component concentration (MPC) was done using the ADVIA®120 haematology system (Bayer Corporation, Tarrytown, N.Y.) Platelet counts made in blood anticoagulated with CTAD and E/C were corrected for dilution (dilution factors were 1.11 and 1.125 respectively). The system was calibrated and standardised prior to use with ADVIA®-SETpoint Haematology Control and ADVIA® OPTIpoint, respectively (Bayer Corporation). In one series of experiments (n=4) these analyses were performed on blood samples anticoagulated with E/C but held at ambient temperature and at 4° C. to investigate the effect of cooling on platelet activation.

[2] = tested on: platelets in whole blood; assay: Expression of CD62P on platelets by flow cytometry; format: cell-based, human; conditions: for CD62P % expression in blood: Example 1, n=6, mean±se; for CD62P % positive platelets in blood: Example 3, at RT
Protocol: (§2) Measurement of the expression CD62P and the number of leucocyte platelet aggregates (PLAs). Anti-coagulated blood (5 μl) was incubated at room temperature with either FITC CD62P (5 μl) or FITC isotype control (5 μl), or PE CD45 (5 μl) and FITC isotype control (5 μl) or FITC CD42a (5 μl) and PE CD45 (5 μl), in 90 μl of TS for 5 min. Samples were diluted to 1 ml with TS and analysed immediately by flow cytometry.
(§3) Flow cytometry. Blood cells were analysed on a FACScan (Becton Dickinson, Oxford, UK) equipped with CellQuest® software. The flow cytometer was calibrated prior to use with fluorochrome labelled beads (Fluorospheres™, Dako).
For the analysis of CD62P expression data was acquired in real time with a primary gate set on a dual parameter histogram of forward light scatter (FLS) logarithmic scale (abscissa) and side light scatter (SLS) logarithmic scale (ordinate). This facilitated identification of the platelets within the blood and was confirmed by the analysis of CD42a expression (FIG. 1). Background fluorescence was assessed with platelets labelled with the FITC conjugated isotype control antibody. Cursors were set in a single parameter histogram of frequency (ordinate) and green fluorescence intensity (abscissa), so that less than 1% of the platelets stained positively with the control antibody. Changes in CD62P expression (green fluorescence logarithmic scale), together with those of FLS and SLS, were then recorded on the gated platelets.

[3] = tested on: platelets in whole blood; assay: Assessment of platelet activation on the ADVIA 120 (PLT, MPV, MPC, PCDW, MPM); format: cell-based, human; conditions: for Platelet count in blood: CTAD and E/C corrected for dilution; for Platelet counts in blood: Example 3 Table 1, ambient temperature, mean of 7
Protocol: Assessment of platelet activation on the ADVIA 120. Whole blood samples were taken into Vacutainer™ containers (Becton Dickinson) containing either EDTA, CTAD, or a mixture of EDTA and CTAD (E/C). Samples were analysed immediately post-venesection and at timed intervals of 30, 60, 120, and 180 minutes post venesection. Analysis of platelet count (PLT), mean platelet volume (MPV), mean platelet component (MPC) and mean platelet component distributionwidth (PCDW) was performed using the ADVIA 120 Haematology System (Bayer Corporation, Tarrytown, N.Y.) calibrated prior to use with ADVIA TESTpoint Haematology Control reagents. (Bayer Corporation, Tarrytown, N.Y.).
Whole blood samples were taken into Vacutainer™ containers (Becton Dickinson) containing EDTA and mixed with the aforementioned platelet antagonists, or with CTAD (this mixture is referred to as E/C). Samples were analysed as in Example 1.
as §1

[4] = tested on: platelet leucocyte aggregates in whole blood; assay: Platelet-leucocyte aggregates (PLAs) by flow cytometry; format: cell-based, human
Protocol: as §2, §3
For the analysis of platelet-leucocyte aggregates (FIG. 2), cells were analysed in a histogram of side scatter (logarithmic scale ordinate) and orange fluorescence (logarithmic scale abscissa). Leucocytes identified by their positive staining with PE CD45 were gated to a histogram of green fluorescence (logarithmic scale ordinate) and orange fluorescence (logarithmic scale abscissa). Events that were both green and orange were considered platelet leucocyte aggregates and recorded as a percentage of a total of 10,000 gated leucocytes.
As Example 1. Platelet-leucocyte aggregates could then be gated to a histogram (C) of side scatter (logarithmic scale ordinate) and orange fluorescence (logarithmic scale abscissa) to identify, by their characteristic SLS, which leucocytes were forming PLAs.

[5] = tested on: platelets; conditions: room temperature; on average; Threatte et al., 1984; cited from earlier work
[6] = tested on: platelets; conditions: over a period of 1–2 h; impedance procedures; depends on sodium citrate concentration; cited from earlier work
[7] = Example 1, 30 min, n=6, mean±se
[8] = Example 1, 60 min, n=6, mean±se
[9] = Example 1, 120 min, n=6, mean±se
[10] = Example 1, 180 min, n=6, mean±se

**Q.** What does the source list for `O=C(O)CN(CCN(CC(=O)O)CC(=O)O)CC(=O)O` [EDTA, Ethylenediaminetetra-acetic acid]?
**A.** MPC [1]: 29.1 (0.52) g/dL; MPV [1]: 7.7 (0.27) fL; PCDW [1]: 5.00 (0.09) g/dL; PCT [1]: 0.19 (0.01) %; PDW [1]: 58.9 (3.24) %; PLT ([1]; CTAD ×1.11, E/C ×1.125): 246 (14) 109/L; CD62P % expression in blood ([2]; 0 min post venesection): 1.10 ± 0.24%; CD62P % expression in blood ([2]; 30 min): 3.71 ± .04%; CD62P % expression in blood ([2]; 60 min): 11.27 ± .60%; CD62P % expression in blood ([2]; 120 min): 18.94 ± 2.53%; CD62P % expression in blood ([2]; 180 min): 23.05±2.79%; CD62P % positive platelets in blood ([2]; 0 min): 1.10 ± 0.24%; CD62P % positive platelets in blood ([2]; 0 min, listed as K3EDTA): 1.10±0.61%; CD62P % positive platelets in blood ([2]; 30 min): 3.71 ± 1.04%; CD62P % positive platelets in blood ([2]; 60 min): 11.27 ± 1.60%; CD62P % positive platelets in blood ([2]; 120 min): 18.94 ± 2.53%; CD62P % positive platelets in blood ([2]; 180 min): 23.05 ± 2.79%; CD62P % positive platelets in blood ([2]; 180 min, listed as K3EDTA): 23.05±1.54%; Platelet count in blood ([3]; Example 1, 0 min, n=6): 235±12; MPC in blood ([3]; Example 1, 0 min, n=6, mean±se): 28.0 ± 0.87 g/dL; MPV in blood ([3]; Example 1, 0 min, n=6, mean±se): 8.0 ± 0.37 fL; PCDW in blood ([3]; Example 1, 0 min, n=6, mean±se): 5.85 ± 0.28 g/dL; Platelet count in blood ([3]; Example 1, 30 min, n=6): 246 ± 14; MPC in blood [3, 7]: 29.1 ± 0.52 g/dL; MPV in blood [3, 7]: 7.7 ± 0.27 fL; PCDW in blood [3, 7]: 5.00 ± 0.09 g/dL; Platelet count in blood ([3]; Example 1, 60 min, n=6): 249 ± 14; MPC in blood [3, 8]: 28.8 ± 0.42 g/dL; MPV in blood [3, 8]: 7.7 ± 0.24 fL; PCDW in blood [3, 8]: 5.00 ± 0.12 g/dL; Platelet count in blood ([3]; Example 1, 120 min, n=6): 247 ± 14; MPC in blood [3, 9]: 27.9 ± 0.48 g/dL; MPV in blood [3, 9]: 8.0 ± 0.30 fL; PCDW in blood [3, 9]: 4.80 ± 0.11 g/dL; Platelet count in blood ([3]; Example 1, 180 min, n=6): 246 ± 5; MPC in blood [3, 10]: 27.1 ± 0.36 g/dL; MPV in blood [3, 10]: 8.1 ± 0.21 fL; PCDW in blood [3, 10]: 4.80 ± 0.08 g/dL and 4.80 ± 0.06 g/dL; MPC in blood ([3]; Example 3, at RT, 0 min): 2.8e-12 ± 8.7e-14 g/dL; MPV in blood ([3]; Example 3, at RT, 0 min): 8.0 ± 0.37 fL; MPC in blood ([3]; Example 3, at RT, 30 min): 2.91e-12 ± 5.2e-14 g/dL; MPV in blood ([3]; Example 3, at RT, 30 min): 7.7 ± 0.27 fL; MPC in blood ([3]; Example 3, at RT, 60 min): 2.88e-12 ± 4.2e-14 g/dL; MPV in blood ([3]; Example 3, at RT, 60 min): 7.7 ± 0.24 fL; MPC in blood ([3]; Example 3, at RT, 120 min): 2.79e-12 ± 4.8e-14 g/dL; MPV in blood ([3]; Example 3, at RT, 120 min): 8.0 ± 0.30 fL; MPC in blood ([3]; Example 3, at RT, 180 min): 2.71e-12 ± 3.6e-14 g/dL; MPV in blood ([3]; Example 3, at RT, 180 min): 8.1 ± 0.21 fL; Platelet counts in blood ([3]; 0 min): 235 ± 13; Platelet counts in blood ([3]; 30 min): 246 ± 14; Platelet counts in blood ([3]; 180 min): 246 ± 5; % platelet leucocyte aggregates in blood ([4]; Example 1, 0 min, n=6, mean±se): 3.50±0.50%; % platelet leucocyte aggregates in blood [4, 7]: 4.16 ± 0.86%; % platelet leucocyte aggregates in blood [4, 8]: 8.87 ± 1.54%; % platelet leucocyte aggregates in blood [4, 9]: 8.50 ± 1.44%; % platelet leucocyte aggregates in blood [4, 10]: 13.50±2.41%; % platelet leucocyte aggregates in blood ([4]; Example 3, at RT, 0 min): 3.30 ± 0.5%; % platelet leucocyte aggregates in blood ([4]; Example 3, at RT, 0 min, listed as K3EDTA): 3.50±0.71%; % platelet leucocyte aggregates in blood ([4]; Example 3, at RT, 30 min): 4.16 ± 0.86%; % platelet leucocyte aggregates in blood ([4]; Example 3, at RT, 60 min): 8.87 ± 1.54%; % platelet leucocyte aggregates in blood ([4]; Example 3, at RT, 120 min): 8.50 ± .44%; % platelet leucocyte aggregates in blood ([4]; Example 3, at RT, 180 min): 13.50 ± 1.74%; % platelet leucocyte aggregates in blood ([4]; Example 3, at RT, 180 min, listed as K3EDTA): 13.50±1.74%; MPV greater than in corresponding citrate anticoagulated blood [5]: 23%

**Q.** For `O=C(O)CC(O)(CC(=O)O)C(=O)O` [citrate, trisodium citrate], which “increase in platelet volume” value [6] is on record?
**A.** Its value is 3–10%.

From patent publication US7011938B2, “Method of measuring platelet activation” (Barts and The London NHS Trust, priority 2000, dated 2006)
